Here are results for ten compounds from PubChem BioAssay (NCI).

The structures appear in SMILES notation.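 A five-concentration, 48-hour dose response in 96-well plates underlies each endpoint, interpolated linearly between surrounding concentrations. TGI denotes the concentration required for complete inhibition of growth.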

Among the test systems are ACHN renal; CCRF-CEM leukemia; HCC-2998 colon; HCT-15 colon; OVCAR-3 ovarian; SF-268 CNS; SF-295 CNS; SF-539 CNS; SK-MEL-2 melanoma; SK-MEL-28 melanoma; TK-10 renal; U251 CNS; UACC-257 melanoma; UACC-62 melanoma; NCI/ADR-RES ovarian; MCF7 breast.
What all share (test): growth of human tumour cells (NCI), 48 h

Take `COc1cc2c(cc1OC)[C@H]1C(COC(=O)c3ccccc3)CSC(=Nc3ccccc3)N1CC2` (stereo partly specified): the TGI in the experiment with ACHN renal, in the experiment on CCRF-CEM leukemia, in the experiment on HCC-2998 colon, in the experiment with HCT-15 colon, in the experiment on OVCAR-3 ovarian and in the experiment with SF-268 CNS was above 100 µM in each case. Also, the TGI with SF-295 CNS, in the experiment with SF-539 CNS, in the experiment on SK-MEL-2 melanoma, in the experiment on SK-MEL-28 melanoma, in the experiment with TK-10 renal and with U251 CNS was above 100 µM in each case. The TGI in the experiment with UACC-257 melanoma and with UACC-62 melanoma was above 100 µM throughout.
`COc1ccc2c(c1)Oc1cc(O)ccc1[C@@H]2c1ccccc1C(=O)NC(C)c1ccccc1` (stereo partly specified): the TGI in the experiment on ACHN renal is 41.1 µM; in the experiment with CCRF-CEM leukemia it was 98.7 µM; in the experiment with HCC-2998 colon, 26.6 µM; in the experiment on HCT-15 colon, 34.6 µM; in the experiment with OVCAR-3 ovarian, 34.5 µM; with SF-268 CNS, 52.8 µM. Moreover, the TGI in the experiment on SF-295 CNS was determined as 28.6 µM; in the experiment on SF-539 CNS, 31 µM; in the experiment on SK-MEL-2 melanoma, 46.6 µM; in the experiment on SK-MEL-28 melanoma, 31.3 µM; in the experiment on TK-10 renal it was 50.7 µM; in the experiment on U251 CNS it was 28.8 µM. The TGI in the experiment with UACC-257 melanoma stood at 32.7 µM; in the experiment on UACC-62 melanoma it was 28.2 µM.
For `CCOC(=O)/C(=C\c1cccs1)P(=O)(OCC)OCC`, the TGI in the experiment on ACHN renal is 32.3 µM; in the experiment on CCRF-CEM leukemia, above 100 µM; in the experiment on HCC-2998 colon, 33.1 µM; with HCT-15 colon, 32.4 µM; with OVCAR-3 ovarian, 41.8 µM; with SF-268 CNS it was 60.4 µM. In addition, the TGI was above 100 µM with SF-295 CNS; 45.4 µM in the experiment on SF-539 CNS; 38.1 µM in the experiment on SK-MEL-2 melanoma; 32.7 µM in the experiment with SK-MEL-28 melanoma; above 100 µM with TK-10 renal; 41.9 µM in the experiment with U251 CNS. Also, the TGI with UACC-257 melanoma turned out to be 61 µM; in the experiment with UACC-62 melanoma, 32.8 µM.
For `CN(C(=O)C1CCCCCC1=O)c1ccccc1Cl` (stereo unspecified), the TGI in the experiment with ACHN renal, with HCT-15 colon, in the experiment on NCI/ADR-RES ovarian, in the experiment with OVCAR-3 ovarian, with SF-268 CNS and in the experiment on SF-295 CNS was above 100 µM each time. The TGI in the experiment with SF-539 CNS, in the experiment on SK-MEL-28 melanoma, in the experiment on TK-10 renal, in the experiment on U251 CNS and in the experiment with UACC-257 melanoma was above 100 µM throughout.
With `COc1cc(C(O)C(=O)c2nc3ccc([N+](=O)[O-])cc3[nH]c2=O)ccc1O` (stereo unspecified), the TGI in the experiment on ACHN renal, in the experiment with CCRF-CEM leukemia, in the experiment on HCC-2998 colon, in the experiment with HCT-15 colon, with OVCAR-3 ovarian and with SF-268 CNS was above 100 µM in each case. The TGI in the experiment with SF-295 CNS, in the experiment on SF-539 CNS, in the experiment on SK-MEL-2 melanoma, in the experiment with SK-MEL-28 melanoma, in the experiment on TK-10 renal and in the experiment on U251 CNS was above 100 µM throughout. Also, the TGI with UACC-62 melanoma was above 100 µM.
Take `CC(=O)N1C(NN(C)C)CCN1c1ccccc1` (stereo unspecified): the TGI with CCRF-CEM leukemia, with HCC-2998 colon, in the experiment with HCT-15 colon, in the experiment on MCF7 breast, in the experiment with SF-268 CNS and in the experiment with SF-295 CNS was above 10 µM in each case. Further, the TGI with SK-MEL-28 melanoma, in the experiment with TK-10 renal, with UACC-257 melanoma and in the experiment on UACC-62 melanoma was above 10 µM each time.
Regarding `CC(=O)C(CN(Cc1ccccc1)Cc1ccccc1)C(c1ccccc1)c1c(O)c2ccccc2oc1=O` (stereo unspecified), the TGI with ACHN renal, with CCRF-CEM leukemia, with HCT-15 colon, in the experiment on OVCAR-3 ovarian, with SF-268 CNS and with SF-295 CNS was above 100 µM each time. Moreover, the TGI in the experiment with SF-539 CNS, in the experiment with SK-MEL-2 melanoma, in the experiment on TK-10 renal, with U251 CNS, in the experiment on UACC-257 melanoma and with UACC-62 melanoma was above 100 µM throughout.
`COCn1cnc2c(=O)n(-c3ccc(OC)cc3)c(=S)n(-c3ccc(OC)cc3)c21`: the TGI in the experiment with ACHN renal, with CCRF-CEM leukemia, in the experiment with HCC-2998 colon, with HCT-15 colon, with MCF7 breast and in the experiment on NCI/ADR-RES ovarian was above 100 µM in each case. The TGI in the experiment on OVCAR-3 ovarian, with SF-268 CNS, in the experiment with SF-295 CNS, in the experiment on SF-539 CNS, with SK-MEL-2 melanoma and in the experiment on SK-MEL-28 melanoma was above 100 µM in each case. The TGI in the experiment on TK-10 renal, in the experiment on U251 CNS, in the experiment on UACC-257 melanoma and with UACC-62 melanoma was above 100 µM in each case.
Consider `CC(C)(CN1CCCCC1)C(=O)/C=C/c1ccc(Cl)cc1`, for which the TGI with ACHN renal was found to be 17.2 µM; with CCRF-CEM leukemia, 7 µM; in the experiment on HCC-2998 colon, 26.3 µM; in the experiment on HCT-15 colon it was 9.85 µM; with OVCAR-3 ovarian, 11.9 µM; in the experiment with SF-268 CNS it was 12.1 µM. In addition, the TGI with SF-295 CNS stood at 11.3 µM; in the experiment with SF-539 CNS, 5.41 µM; in the experiment with SK-MEL-28 melanoma it was 22.6 µM; with TK-10 renal, 29.1 µM; in the experiment on U251 CNS it was 11.7 µM; with UACC-257 melanoma it was 19.9 µM. For the same compound, the TGI with UACC-62 melanoma came to 20.2 µM.
Regarding `CC1=NN(C(=O)CC(=O)NC(=O)CC(=O)Nc2ccccc2F)C(=O)C1N=Nc1ccc([N+](=O)[O-])cc1` (stereo unspecified), the TGI is above 100 µM in the experiment with ACHN renal; 63.6 µM with CCRF-CEM leukemia; above 100 µM with HCC-2998 colon; above 100 µM in the experiment on HCT-15 colon; 81.3 µM with OVCAR-3 ovarian; above 100 µM with SF-268 CNS. For the same compound, the TGI in the experiment on SF-295 CNS is above 100 µM; in the experiment on SF-539 CNS it was above 100 µM; with SK-MEL-2 melanoma it was above 100 µM; in the experiment on SK-MEL-28 melanoma, above 100 µM; with TK-10 renal, above 100 µM; in the experiment with U251 CNS, 50 µM. The TGI was 76.1 µM with UACC-257 melanoma and above 100 µM in the experiment on UACC-62 melanoma.
